Experimental data: PMC2963311 (Nature neuroscience, 2008)
Where no end group is shown, it is not given here.

The substances below were run on EGL-6 (assay: GIRK current activation in EGL-6-expressing oocytes). Settings: single synthetic peptide; X. laevis oocytes coexpressing EGL-6 and GIRKs; whole-cell currents, two-electrode voltage clamp, −80 mV, high-K+ medium (96 mM KCl); Fig. 4d.
Format: cell-based, C. elegans
For KSQYIRF-NH2, the “agonist activity when applied individually” value (from here on “agonist activity”) was “could function as agonists when applied individually”. In the case of QPKARSGYIRF-NH2, the “agonist activity” value is reported as “could function as agonists when applied individually”. In the case of KSAFVRF-NH2, the “agonist activity” value is reported as “could function as agonists when applied individually”.
